A word on the Ki: it is a dissociation constant, usually derived from enzyme kinetics or from competition with a known ligand. Low readings indicate tighter binding, high ones weaker binding.

One assay has as its system NFAT. Nature of the assay: Jurkat T cell model, NFAT dependent luciferase activation by PMA plus ionomycin. Format: cell-based. The settings on record: luciferase construct. Here is the method:
(§1) Substances according to the invention were investigated in an accepted Jurkat T cell model. The underlying mechanism is based on the fact that the transcriptional activity of lymphokines, such as e.g. the one of IL-2, is based on the coordinated activation of different transcription factors, such as e.g. NFAT and NF-κB. The effect of the substances according to the invention on said factors was evaluated in-vitro with the aid of a luciferase-coupled construct (KBF-luc). Thereby, an activation of transiently transfected cells (Jurkat T cells) through PMA (plus ionomycin in case of NFAT activation), driven by a NF-κB or NFAT dependent promoter, leads to a strong induction of luciferase gene expression. The inhibition of the luciferase activity was measured as a function of the dose rate of the substance according to the invention. A knowledgeable person skilled in the art can easily follow such procedure from the literature (e.g. in Yuan et al. (2002), Sancho et al. (2003), Do et al. (2004) and Cencioni et al. (2010)).

Assay [1] deals with T1, CB2 receptors (Homo sapiens, UniProt P34972). Description: Signal transduction in CHO-CB2-CREluc cells (luciferase; forskolin, AM630). The settings on record: for Effect on CB2 receptor (in words): text statement.
In assay [2] the target is T2, CB1 receptors (Homo sapiens, UniProt P21554). Nature of the assay: Signal transduction in CHO-CB1-CREluc cells (luciferase; agonism, and antagonism against WIN). The settings on record: for Effect on CB1 receptor (in words): text statement.
Assay [3] has as its target T2, CB1 receptors. Description: biochemical. Format: binding. Set-up: purchased RBHCB1M400UA; host or cells: human cells (transfected). The settings on record: for Ki: dissociation constant, mean +/- SEM, competition with [3H]-CP55940; for CB1 (% binding): screening with a single high dose, displacement of [3H]-CP55940.
In assay [4] the target is T1, CB2 receptors. Description: Competition binding study with [3H]-CP55940 in CB2 receptor transfected cell membranes. Set-up: purchased RBXCB2M400UA; host or cells: human cells (transfected). The settings on record: for Ki: dissociation constant, mean +/- SEM, competition with [3H]-CP55940; for Ki (CB1): Ki (CB2) Selectivity for CB2 in comparison to CB1 (rounded): ratio of Ki values; for CB2 (% binding): screening with a single high dose, displacement of [3H]-CP55940.

The subject of the next assay is NF-κB. Description: Jurkat T cell model, NF-κB dependent luciferase activation by PMA. It counts as cell-based. The settings on record: luciferase construct. The procedure: as §1
Where [5] appears, read: listed as 2-Hydroxyethyl cannabidiolate.
The mark [6] stands for this setting: listed as Glyceryl cannabidiolate.
Where [7] appears, read: listed as N-Methyl-sulfonyl cannabidiolate.

T1 sequence (P34972 whole entry): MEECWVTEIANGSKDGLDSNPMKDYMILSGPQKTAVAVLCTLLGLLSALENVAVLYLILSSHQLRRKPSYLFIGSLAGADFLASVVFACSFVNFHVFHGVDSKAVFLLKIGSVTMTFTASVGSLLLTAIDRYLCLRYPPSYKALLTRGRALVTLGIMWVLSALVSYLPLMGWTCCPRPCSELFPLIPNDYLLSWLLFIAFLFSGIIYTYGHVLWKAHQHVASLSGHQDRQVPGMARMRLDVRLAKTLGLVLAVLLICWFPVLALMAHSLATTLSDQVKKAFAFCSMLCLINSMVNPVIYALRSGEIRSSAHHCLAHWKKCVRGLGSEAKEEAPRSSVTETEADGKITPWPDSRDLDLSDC
T2 sequence (P21554 whole entry): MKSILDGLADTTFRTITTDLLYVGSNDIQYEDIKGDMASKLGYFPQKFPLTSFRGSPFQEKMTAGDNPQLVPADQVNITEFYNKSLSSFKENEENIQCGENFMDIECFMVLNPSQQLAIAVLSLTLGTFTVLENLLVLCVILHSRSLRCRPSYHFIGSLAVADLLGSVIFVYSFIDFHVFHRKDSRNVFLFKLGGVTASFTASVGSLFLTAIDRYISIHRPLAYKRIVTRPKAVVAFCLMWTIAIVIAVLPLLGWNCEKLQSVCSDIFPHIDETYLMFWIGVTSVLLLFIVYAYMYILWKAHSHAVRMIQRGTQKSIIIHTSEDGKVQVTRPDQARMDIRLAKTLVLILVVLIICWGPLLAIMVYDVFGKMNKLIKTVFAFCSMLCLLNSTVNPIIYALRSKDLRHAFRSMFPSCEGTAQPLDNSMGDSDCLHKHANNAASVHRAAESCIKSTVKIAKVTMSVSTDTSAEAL

For the molecule `C=C(C)C1CCC(C)=CC1c1c(O)cc(CCCCC)c(C(=O)OCC(O)CCC)c1O` (centres unmarked) [2-hydroxypentyl cannabidiolate], the “Inhibition of NFAT dependent activation of T cells” value with NFAT was “inhibition”. The “Effect on CB2 receptor (in words)” value at CB2 receptors [1] is “strong activation”. The “Effect on CB1 receptor (in words)” value on CB1 receptors [2] was “inhibit”.

Take `C=C(C)[C@@H]1CCC(C)=C[C@H]1c1c(O)cc(CCCCC)c(C(=O)OCCO)c1O` [Compound III, 2-hydroxyethyl cannabidiolate]: on CB1 receptors [3], the Ki was 3920 nM and the “CB1 (% binding)” value was found to be 77.3 ± 6.5%. At CB2 receptors [4], affinity was put at a Ki of 375 ± 47.7 nM, the “Ki (CB1): Ki (CB2) Selectivity for CB2 in comparison to CB1 (rounded)” value (“Ki (CB1): Ki (CB2) Selectivity for CB2” for short) is reported as 10.4 and the “CB2 (% binding)” value was 90.3 ± 2.4%. Also, the “Inhibition of NFAT dependent activation of T cells” value in the assay with NFAT was “inhibition”. Also, at CB2 receptors [1], the “Agonism and antagonism at CB2” value is “+”; the “Effect on CB2 receptor (in words)” value was “CB2 agonists”. Further, the “Effect on CB2 receptor (in words)” value at CB2 receptors [1] (setting [5]) is listed as “strong activation”. Moreover, on CB1 receptors [2], the “Agonism and antagonism at CB1” value is “−”; the “Effect on CB1 receptor (in words)” value is given as “CB1 antagonists”. Moreover, on CB1 receptors [2] (setting [5]), the “Effect on CB1 receptor (in words)” value was “inhibit”.

Regarding `C=C(C)[C@@H]1CCC(C)=C[C@H]1c1c(O)cc(CCCCC)c(C(=O)OCC(O)CO)c1O` (some centres unmarked) [Compound IV, Glyceryl cannabidiolate], on CB1 receptors [3], affinity was put at a Ki of 2170 nM and the “CB1 (% binding)” value is given as 90.2 ± 3.8%. Further, on CB2 receptors [4], the Ki was determined as 277 ± 78.7 nM, the “Ki (CB1): Ki (CB2) Selectivity for CB2” value is 7.8 and the “CB2 (% binding)” value is listed as 101.6 ± 0.5%. Besides, the “Inhibition of NFAT dependent activation of T cells” value with NFAT is “inhibition”. For the same molecule, at CB2 receptors [1], the “Agonism and antagonism at CB2” value is listed as “+”; the “Effect on CB2 receptor (in words)” value was “CB2 agonists”. Also, at CB2 receptors [1] (setting [6]), the “Effect on CB2 receptor (in words)” value is listed as “strong activation”. At CB1 receptors [2], the “Agonism and antagonism at CB1” value is recorded as “+”; the “Effect on CB1 receptor (in words)” value was “CB1 agonists”. For the same molecule, the “Effect on CB1 receptor (in words)” value on CB1 receptors [2] (setting [6]) is “weak activation”.

Take `C=C(C)[C@@H]1CCC(C)=C[C@H]1c1c(O)cc(CCCCC)c(C(=O)OCC(O)CCC)c1O` (some centres unmarked) [Compound V, 2-hydroxypentyl cannabidiolate]: on CB1 receptors [3], the affinity corresponds to a Ki of 538 ± 53.9 nM and the “CB1 (% binding)” value is given as 82.0 ± 8.0%. Besides, on CB2 receptors [1], the “Agonism and antagonism at CB2” value was “+”; the “Effect on CB2 receptor (in words)” value is “CB2 agonists”. Further, at CB1 receptors [2], the “Agonism and antagonism at CB1” value is recorded as “−”; the “Effect on CB1 receptor (in words)” value was “CB1 antagonists”.

Consider `C=C(C)C1CCC(C)=CC1c1c(O)cc(CCCCC)c(C(=O)OCCCCCC)c1O` (centres unmarked) [Hexyl cannabidiolate], for which, on CB2 receptors [1], the “Agonism and antagonism at CB2” value is given as “+”; the “Effect on CB2 receptor (in words)” value is given as “antagonism”. Besides, on CB1 receptors [2], the “Agonism and antagonism at CB1” value is recorded as “+”; the “Effect on CB1 receptor (in words)” value was “antagonism”.

On to `C=C(C)[C@@H]1CCC(C)=CC1c1c(O)cc(CCCCC)c(C(=O)OCCCCCC)c1O` (some centres unmarked) [XI, Hexyl cannabidiolate], for which, on CB1 receptors [3], the affinity, expressed as Ki, was 538 ± 53.9 nM and the “CB1 (% binding)” value was 92.2 ± 1.7%. At CB2 receptors [4], the affinity corresponds to a Ki of 510 ± 29 nM, the “Ki (CB1): Ki (CB2) Selectivity for CB2” value was 1 and the “CB2 (% binding)” value was found to be 97.2 ± 3.4%. Further, on CB2 receptors [1], the “Effect on CB2 receptor (in words)” value was “CB2 agonists”. The “Effect on CB1 receptor (in words)” value on CB1 receptors [2] is “CB1 agonists”.

In the case of `C=C(C)[C@@H]1CCC(C)=CC1c1c(O)cc(CCCCC)c(C(=O)OC2CCCCC2)c1O` (some centres unmarked) [XII, Cyclohexyl cannabidiolate], at CB1 receptors [3], the Ki came to 538 ± 53.9 nM and the “CB1 (% binding)” value came to 81.5 ± 6.8%. Also, on CB2 receptors [4], the inhibitory constant (Ki) is 67 ± 4 nM, the “Ki (CB1): Ki (CB2) Selectivity for CB2” value is listed as 37 and the “CB2 (% binding)” value is listed as 99.2 ± 2.3%. For the same molecule, at CB2 receptors [1], the “Agonism and antagonism at CB2” value amounted to 0. Moreover, on CB1 receptors [2], the “Agonism and antagonism at CB1” value is reported as “−”; the “Effect on CB1 receptor (in words)” value is listed as “CB1 antagonists”. For the same molecule, the “Effect on CB1 receptor (in words)” value at CB1 receptors [2] (listed as cyclohexyl cannabidiolate) is “antagonistic effect”.

For `C=C(C)[C@@H]1CCC(C)=CC1c1c(O)cc(CCCCC)c(C(=O)OCCNS(C)(=O)=O)c1O` (some centres unmarked) [XIII, N-Methyl-sulfonyl cannabidiolate], on CB1 receptors [3], the “Binding to CB1 receptors (in words)” value was “high binding affinity”, the Ki is 538 ± 53.9 nM and the “CB1 (% binding)” value is recorded as 98.9 ± 7.8%. Besides, at CB2 receptors [4], the “Binding to CB2 receptors (in words)” value was “high binding affinity”, the Ki amounted to 0.012 ± 0.001 nM, the “Ki (CB1): Ki (CB2) Selectivity for CB2” value is listed as 22.5 and the “CB2 (% binding)” value was 104.9 ± 4.8%. Besides, the “Inhibition of NFAT dependent activation of T cells” value with NFAT is “strong inhibition”. Besides, at CB2 receptors [1], the “Agonism and antagonism at CB2” value is given as “+”; the “Effect on CB2 receptor (in words)” value is reported as “CB2 agonists”. The “Effect on CB2 receptor (in words)” value at CB2 receptors [1] (setting [7]) is “agonistic effect”. Moreover, at CB1 receptors [2], the “Agonism and antagonism at CB1” value is “−”; the “Effect on CB1 receptor (in words)” value is “CB1 antagonists”. In addition, on CB1 receptors [2] (setting [7]), the “Effect on CB1 receptor (in words)” value is “antagonistic effect”. Further, the “Inhibition of NF-κB dependent activation of T cells” value with NF-κB was “strong inhibition”.

(Values after US9670133B2, “Mixtures of cannabinoid compounds, and production and use thereof” (priority 2013, dated 2017).)
